Reference: the NIST ThermoML archive (doi:10.1016/j.jct.2015.12.027)
± gives the expanded uncertainty stated by the source.

Legend:
[1] = 81.5 kPa, Liquid, Vibrating tube method
[2] = refractive index (Na D-line) (dimensionless); conditions: 81.5 kPa, Liquid, Standard Abbe refractometry
[3] = xn = mol fraction of the nth substance listed; conditions: 81.5 kPa, Liquid, Vibrating tube method
[4] = refractive index (Na D-line) (dimensionless); xn = mol fraction of the nth substance listed; conditions: 81.5 kPa, Liquid, Standard Abbe refractometry

For `ClCCCl` [1,2-dichloroethane], the mass density ([1]; 293.15 K) was 1252.82 ± 10 kg/m3, the mass density ([1]; 303.15 K) was 1238.27 ± 10 kg/m3 and the mass density ([1]; 313.15 K) was 1223.53 ± 10 kg/m3. The mass density ([1]; 323.15 K) was 1208.61 ± 10 kg/m3, the mass density ([1]; 333.15 K) was 1193.61 ± 10 kg/m3 and the refractive index ([2]; 293.15 K) was 1.44472 ± 0.01. For the same compound, the refractive index ([2]; 303.15 K) was 1.43948 ± 0.01, the refractive index ([2]; 313.15 K) was 1.43423 ± 0.01 and the refractive index ([2]; 323.15 K) was 1.42897 ± 0.01. It also gave a refractive index ([2]; 333.15 K) of 1.42373 ± 0.01.
For `ClCCCl` [1,2-dichloroethane] + Brc1ccccc1, the mass density ([3]; 293.15 K, x1 = 1) was 1252.82 ± 10 kg/m3, the mass density ([3]; 303.15 K, x1 = 1) was 1238.27 ± 10 kg/m3 and the mass density ([3]; 313.15 K, x1 = 1) was 1223.53 ± 10 kg/m3. It also gave a mass density ([3]; 323.15 K, x1 = 1) of 1208.61 ± 10 kg/m3, a mass density ([3]; 333.15 K, x1 = 1) of 1193.61 ± 10 kg/m3 and a refractive index ([4]; 293.15 K, x1 = 1) of 1.44472 ± 0.01. It also gave a refractive index ([4]; 303.15 K, x1 = 1) of 1.43948 ± 0.01, a refractive index ([4]; 313.15 K, x1 = 1) of 1.43423 ± 0.01 and a refractive index ([4]; 323.15 K, x1 = 1) of 1.42897 ± 0.01. For the same compound, the refractive index ([4]; 333.15 K, x1 = 1) was 1.42373 ± 0.01.
With `ClCCCl` [1,2-dichloroethane] + Clc1ccccc1 the mass density ([3]; 293.15 K, x1 = 1) was 1252.82 ± 10 kg/m3, the mass density ([3]; 303.15 K, x1 = 1) was 1238.27 ± 10 kg/m3 and the mass density ([3]; 313.15 K, x1 = 1) was 1223.53 ± 10 kg/m3. For the same compound, the mass density ([3]; 323.15 K, x1 = 1) was 1208.61 ± 10 kg/m3, the mass density ([3]; 333.15 K, x1 = 1) was 1193.61 ± 10 kg/m3 and the refractive index ([4]; 293.15 K, x1 = 1) was 1.44472 ± 0.01. It also gave a refractive index ([4]; 303.15 K, x1 = 1) of 1.43948 ± 0.01, a refractive index ([4]; 313.15 K, x1 = 1) of 1.43423 ± 0.01 and a refractive index ([4]; 323.15 K, x1 = 1) of 1.42897 ± 0.01. It also gave a refractive index ([4]; 333.15 K, x1 = 1) of 1.42373 ± 0.01.
`ClCCCl` [1,2-dichloroethane] + O=[N+]([O-])c1ccccc1 gave a mass density ([3]; 293.15 K, x1 = 1) of 1252.82 ± 10 kg/m3, a mass density ([3]; 303.15 K, x1 = 1) of 1238.27 ± 10 kg/m3 and a mass density ([3]; 313.15 K, x1 = 1) of 1223.53 ± 10 kg/m3. It also gave a mass density ([3]; 323.15 K, x1 = 1) of 1208.61 ± 10 kg/m3, a mass density ([3]; 333.15 K, x1 = 1) of 1193.61 ± 10 kg/m3 and a refractive index ([4]; 293.15 K, x1 = 1) of 1.44472 ± 0.01. It also gave a refractive index ([4]; 303.15 K, x1 = 1) of 1.43948 ± 0.01, a refractive index ([4]; 313.15 K, x1 = 1) of 1.43423 ± 0.01 and a refractive index ([4]; 323.15 K, x1 = 1) of 1.42897 ± 0.01. The refractive index ([4]; 333.15 K, x1 = 1) was 1.42373 ± 0.01.
`c1ccccc1` [benzene] gave a mass density ([1]; 293.15 K) of 878.87 ± 10 kg/m3, a mass density ([1]; 303.15 K) of 868.2 ± 10 kg/m3 and a mass density ([1]; 313.15 K) of 857.44 ± 10 kg/m3. For the same compound, the mass density ([1]; 323.15 K) was 846.62 ± 10 kg/m3, the mass density ([1]; 333.15 K) was 835.71 ± 10 kg/m3 and the refractive index ([2]; 293.15 K) was 1.50118 ± 0.01. The refractive index ([2]; 303.15 K) was 1.49517 ± 0.01, the refractive index ([2]; 313.15 K) was 1.4885 ± 0.01 and the refractive index ([2]; 323.15 K) was 1.48264 ± 0.01. The refractive index ([2]; 333.15 K) was 1.47638 ± 0.01.
Compound `c1ccccc1` [benzene] + ClCCCl has a mass density ([3]; 293.15 K, x2 = 0) of 878.87 ± 10 kg/m3, a mass density ([3]; 303.15 K, x2 = 0) of 868.2 ± 10 kg/m3 and a mass density ([3]; 313.15 K, x2 = 0) of 857.44 ± 10 kg/m3. For the same compound, the mass density ([3]; 323.15 K, x2 = 0) was 846.62 ± 10 kg/m3, the mass density ([3]; 333.15 K, x2 = 0) was 835.71 ± 10 kg/m3 and the refractive index ([4]; 293.15 K, x2 = 0) was 1.50118 ± 0.01. For the same compound, the refractive index ([4]; 303.15 K, x2 = 0) was 1.49517 ± 0.01, the refractive index ([4]; 313.15 K, x2 = 0) was 1.4885 ± 0.01 and the refractive index ([4]; 323.15 K, x2 = 0) was 1.48264 ± 0.01. For the same compound, the refractive index ([4]; 333.15 K, x2 = 0) was 1.47638 ± 0.01.
`Brc1ccccc1` [bromobenzene] showed a mass density ([1]; 293.15 K) of 1495.52 ± 10 kg/m3, a mass density ([1]; 303.15 K) of 1481.97 ± 10 kg/m3 and a mass density ([1]; 313.15 K) of 1468.41 ± 10 kg/m3. It also gave a mass density ([1]; 323.15 K) of 1454.85 ± 10 kg/m3, a mass density ([1]; 333.15 K) of 1441.22 ± 10 kg/m3 and a refractive index ([2]; 293.15 K) of 1.55981 ± 0.01. The refractive index ([2]; 303.15 K) was 1.55442 ± 0.01, the refractive index ([2]; 313.15 K) was 1.5489 ± 0.01 and the refractive index ([2]; 323.15 K) was 1.54319 ± 0.01. The refractive index ([2]; 333.15 K) was 1.53742 ± 0.01.
In the case of `Clc1ccccc1` [chlorobenzene], the mass density ([1]; 293.15 K) is reported as 1106.49 ± 10 kg/m3, the mass density ([1]; 303.15 K) is reported as 1095.71 ± 10 kg/m3 and the mass density ([1]; 313.15 K) is reported as 1084.86 ± 10 kg/m3. For the same compound, the mass density ([1]; 323.15 K) was 1073.96 ± 10 kg/m3, the mass density ([1]; 333.15 K) was 1063.01 ± 10 kg/m3 and the refractive index ([2]; 293.15 K) was 1.52455 ± 0.01. The refractive index ([2]; 303.15 K) was 1.51902 ± 0.01, the refractive index ([2]; 313.15 K) was 1.51346 ± 0.01 and the refractive index ([2]; 323.15 K) was 1.50781 ± 0.01. It also gave a refractive index ([2]; 333.15 K) of 1.50223 ± 0.01.
In the case of `O=[N+]([O-])c1ccccc1` [nitrobenzene], the mass density ([1]; 293.15 K) is reported as 1203.05 ± 10 kg/m3, the mass density ([1]; 303.15 K) is reported as 1193.15 ± 10 kg/m3 and the mass density ([1]; 313.15 K) is reported as 1183.21 ± 10 kg/m3. For the same compound, the mass density ([1]; 323.15 K) was 1173.27 ± 10 kg/m3, the mass density ([1]; 333.15 K) was 1163.32 ± 10 kg/m3 and the refractive index ([2]; 293.15 K) was 1.55241 ± 0.01. For the same compound, the refractive index ([2]; 303.15 K) was 1.54763 ± 0.01, the refractive index ([2]; 313.15 K) was 1.54288 ± 0.01 and the refractive index ([2]; 323.15 K) was 1.53795 ± 0.01. The refractive index ([2]; 333.15 K) was 1.53289 ± 0.01.
